Entries after “also recorded” stand apart in the source; their conditions may differ.
Experiments:
uninfected H9 cells = assay: Toxicity to mock-infected H9 cells; type: cell-based; settings: human, mock-infected (uninfected) H9 T-cells
HIV-1 IIIB = assay: HIV-1 infectivity assay against non-drug-resistant strain in H9 lymphocytes; type: cell-based; settings: for EC50: concentration that inhibits HIV-1IIIB replication by 50%: H9 lymphocytes, p24, day 6 PI; for anti-HIV activity in words: HIV-1 replication in H9 lymphocytes

EC50: concentration that inhibits HIV-1IIIB replication by 50% (HIV-1 IIIB) | SMILES | IC50 at 6 days (uninfected H9 cells) | anti-HIV activity in words (HIV-1 IIIB)
– | Cc1cc(=O)oc2c3c(ccc12)OC(C)(C)[C@H](OC(=O)[C@]12CC[C@](C)(C(=O)O1)C2(C)C)[C@@H]3OC(=O)[C@]12CC[C@](C)(C(=O)O1)C2(C)C [Compound 2] | > 39.2 µM | –
no suppression | Cc1cc(=O)oc2c3c(ccc12)[S+]([O-])[C@@H](C)C(OC(=O)C12CCC(C)(C(=O)O1)C2(C)C)C3OC(=O)C12CCC(C)(C(=O)O1)C2(C)C (stereo partly drawn) [9a+9b, 1′-Sulfoxide-2′,4-dimethyl-3′,4′-di-O-(−)-camphanoyl-(+)-cis-khellactone] | – | –
no suppression | Cc1cc(=O)oc2c3c(ccc12)O[C@H](C)[C@H](OC(=O)[C@]12CC[C@](C)(C(=O)O1)C2(C)C)[C@@H]3OC(=O)[C@]12CC[C@](C)(C(=O)O1)C2(C)C [Compound 6, (2′R,3′S,4′R)-2′,4-Dimethyl-3′,4′-di-O-(−)-camphanoyl-(+)-cis-khellactone] | – | inactive at the test concentrations; also recorded: much weaker inhibitory activity
no suppression | Cc1cc(=O)oc2c3c(ccc12)S(=O)(=O)[C@H](C)[C@H](OC(=O)[C@]12CC[C@](C)(C(=O)O1)C2(C)C)[C@@H]3OC(=O)[C@]12CC[C@](C)(C(=O)O1)C2(C)C [Compound 12, (8R,9R,10R)-1′-Sulfone-2′,4-dimethyl-3′,4′-di-O-(−)-camphanoyl-(+)-cis-khellactone] | – | –
– | Cc1cc(=O)oc2c3c(ccc12)O[C@H](C)[C@@H](OC(=O)[C@]12CC[C@](C)(C(=O)O1)C2(C)C)[C@H]3OC(=O)[C@]12CC[C@](C)(C(=O)O1)C2(C)C [Compound 5b, (2′R,3′R,4′S)-2′,4-Dimethyl-3′,4′-di-O-(−)-camphanoyl-(+)-cis-khellactone] | – | low potency
– | Cc1cc(=O)oc2c3c(ccc12)S[C@H](C)[C@H](OC(=O)[C@]12CC[C@](C)(C(=O)O1)C2(C)C)[C@@H]3OC(=O)[C@]12CC[C@](C)(C(=O)O1)C2(C)C [Compound 8, (2′R,3′R,4′R)-1′-Thia-2′,4-Dimethyl-3′,4′-di-O-(−)-camphanoyl-(+)-cis-khellactone] | – | much weaker inhibitory activity

SMILES | EC50: concentration that inhibits HIV-1IIIB replication by 50% (HIV-1 IIIB) | IC50 at 6 days (uninfected H9 cells) | anti-HIV activity in words (HIV-1 IIIB)
Cc1cc(=O)oc2c3c(ccc12)S[C@H](C)[C@@H](OC(=O)[C@]12CC[C@](C)(C(=O)O1)C2(C)C)[C@H]3OC(=O)[C@]12CC[C@](C)(C(=O)O1)C2(C)C [Compound 7b, (2′R,3′S,4′S) -1′-Thia-2′,4-dimethyl-3′,4′-di-O-(−)-camphanoyl-(+)-cis-khellactone] | no suppression | – | inactivity

— paper PMC2949462 (Bioorganic & medicinal chemistry, 2010)
